Data from ChEMBL document CHEMBL3044925, “Synthesis of piperazino and morpholino derivatives of aryloxypropane with potential analgesic and possible antimigraine activities” (Med Chem Res, 2011).

Assays:
Mus musculus [1] = assay: Neurotoxicity against Mus musculus MFI (mouse) assessed as irritability at 90 mg/kg, ip; assay type: toxicity, organism-based; set-up: dose 90 mg/kg, route intraperitoneal; conditions: in vivo
Mus musculus [2] = assay: Neurotoxicity against Mus musculus MFI (mouse) assessed as skeletal muscle incoordination at 90 mg/kg, ip; assay type: toxicity, organism-based, Muscle tissue; set-up: dose 90 mg/kg, route intraperitoneal; conditions: in vivo
Mus musculus [3] = assay: Neurotoxicity against Mus musculus MFI (mouse) assessed as eye protrusion at 90 mg/kg, ip; assay type: toxicity, organism-based; set-up: dose 90 mg/kg, route intraperitoneal; conditions: in vivo
Mus musculus [4] = assay: […] activity in Mus musculus MFI (mouse) assessed as inhibition of PBQ-induced writhing at 90 mg/kg, ip administered 1.5 hr prior to PBQ-challenge measured after 10 min relative to aspirin; assay type: functional; conditions: route intraperitoneal
Mus musculus [5] = assay: Neurotoxicity against Mus musculus MFI (mouse) assessed as tail erection at 90 mg/kg, ip; assay type: toxicity, organism-based; set-up: dose 90 mg/kg, route intraperitoneal; conditions: in vivo
Mus musculus [6] = assay: Neurotoxicity against Mus musculus MFI (mouse) assessed as epilepsy at 90 mg/kg, ip; assay type: toxicity, organism-based; set-up: dose 90 mg/kg, route intraperitoneal; conditions: in vivo
Mus musculus [7] = assay: Neurotoxicity against Mus musculus MFI (mouse) assessed as excitation at 90 mg/kg, ip; assay type: toxicity, organism-based; set-up: dose 90 mg/kg, route intraperitoneal; conditions: in vivo
Mus musculus [8] = assay: Neurotoxicity against Mus musculus MFI (mouse) assessed as effect on respiration at 90 mg/kg, ip; assay type: toxicity, organism-based; set-up: dose 90 mg/kg, route intraperitoneal; conditions: in vivo
Mus musculus [9] = assay: Neurotoxicity against Mus musculus MFI (mouse) assessed as tremors at 90 mg/kg, ip; assay type: toxicity, organism-based; set-up: dose 90 mg/kg, route intraperitoneal; conditions: in vivo
Mus musculus [10] = assay: Neurotoxicity against Mus musculus MFI (mouse) assessed as muscle twitching at 90 mg/kg, ip; assay type: toxicity, organism-based, Muscle tissue; set-up: dose 90 mg/kg, route intraperitoneal; conditions: in vivo
Mus musculus [11] = assay: Neurotoxicity against Mus musculus MFI (mouse) assessed as hair erection at 90 mg/kg, ip; assay type: toxicity, organism-based; set-up: dose 90 mg/kg, route intraperitoneal; conditions: in vivo
Mus musculus [12] = assay: Neurotoxicity against Mus musculus MFI (mouse) assessed as excitation at 135 mg/kg, ip; assay type: toxicity, organism-based; set-up: dose 135 mg/kg, route intraperitoneal; conditions: in vivo
Mus musculus [13] = assay: Neurotoxicity against Mus musculus MFI (mouse) assessed as skeletal muscle incoordination at 50 mg/kg, ip; assay type: toxicity, organism-based, Muscle tissue; set-up: dose 50 mg/kg, route intraperitoneal; conditions: in vivo
Mus musculus [14] = assay: Neurotoxicity against Mus musculus MFI (mouse) assessed as eye protrusion at 50 mg/kg, ip; assay type: toxicity, organism-based; set-up: dose 50 mg/kg, route intraperitoneal; conditions: in vivo
Mus musculus [15] = assay: Neurotoxicity against Mus musculus MFI (mouse) assessed as hair erection at 50 mg/kg, ip; assay type: toxicity, organism-based; set-up: dose 50 mg/kg, route intraperitoneal; conditions: in vivo
Mus musculus [16] = assay: Neurotoxicity against Mus musculus MFI (mouse) assessed as eye protrusion at 135 mg/kg, ip; assay type: toxicity, organism-based; set-up: dose 135 mg/kg, route intraperitoneal; conditions: in vivo
Mus musculus [17] = assay: Neurotoxicity against Mus musculus MFI (mouse) assessed as epilepsy at 50 mg/kg, ip; assay type: toxicity, organism-based; set-up: dose 50 mg/kg, route intraperitoneal; conditions: in vivo
Mus musculus [18] = assay: Neurotoxicity against Mus musculus MFI (mouse) assessed as muscle twitching at 50 mg/kg, ip; assay type: toxicity, organism-based, Muscle tissue; set-up: dose 50 mg/kg, route intraperitoneal; conditions: in vivo
Mus musculus [19] = assay: […] activity in Mus musculus MFI (mouse) assessed as inhibition of PBQ-induced writhing at 50 mg/kg, ip administered 1.5 hr prior to PBQ-challenge measured after 10 min relative to aspirin; assay type: functional; conditions: route intraperitoneal
Mus musculus [20] = assay: Neurotoxicity against Mus musculus MFI (mouse) assessed as hair erection at 135 mg/kg, ip; assay type: toxicity, organism-based; set-up: dose 135 mg/kg, route intraperitoneal; conditions: in vivo
Mus musculus [21] = assay: Neurotoxicity against Mus musculus MFI (mouse) assessed as excitation at 50 mg/kg, ip; assay type: toxicity, organism-based; set-up: dose 50 mg/kg, route intraperitoneal; conditions: in vivo
Mus musculus [22] = assay: Neurotoxicity against Mus musculus MFI (mouse) assessed as tremors at 50 mg/kg, ip; assay type: toxicity, organism-based; set-up: dose 50 mg/kg, route intraperitoneal; conditions: in vivo
Mus musculus [23] = assay: Neurotoxicity against Mus musculus MFI (mouse) assessed as tremors at 135 mg/kg, ip; assay type: toxicity, organism-based; set-up: dose 135 mg/kg, route intraperitoneal; conditions: in vivo
Mus musculus [24] = assay: Neurotoxicity in ip dosed Mus musculus MFI (mouse); assay type: toxicity, organism-based; conditions: in vivo
Mus musculus [25] = assay: Neurotoxicity against Mus musculus MFI (mouse) assessed as tail erection at 50 mg/kg, ip; assay type: toxicity, organism-based; set-up: dose 50 mg/kg, route intraperitoneal; conditions: in vivo
Mus musculus [26] = assay: Neurotoxicity against Mus musculus MFI (mouse) assessed as irritability at 135 mg/kg, ip; assay type: toxicity, organism-based; set-up: dose 135 mg/kg, route intraperitoneal; conditions: in vivo
Mus musculus [27] = assay: Neurotoxicity against Mus musculus MFI (mouse) assessed as skeletal muscle incoordination at 135 mg/kg, ip; assay type: toxicity, organism-based, Muscle tissue; set-up: dose 135 mg/kg, route intraperitoneal; conditions: in vivo
Mus musculus [28] = assay: Neurotoxicity against Mus musculus MFI (mouse) assessed as muscle twitching at 135 mg/kg, ip; assay type: toxicity, organism-based, Muscle tissue; set-up: dose 135 mg/kg, route intraperitoneal; conditions: in vivo
Mus musculus [29] = assay: Neurotoxicity against Mus musculus MFI (mouse) assessed as effect on respiration at 50 mg/kg, ip; assay type: toxicity, organism-based; set-up: dose 50 mg/kg, route intraperitoneal; conditions: in vivo
Mus musculus [30] = assay: […] activity in ip dosed Mus musculus MFI (mouse) assessed as inhibition of PBQ-induced writhing administered 1.5 hr prior to PBQ-challenge measured after 10 min; assay type: functional; conditions: read-out: MED
Mus musculus [31] = assay: Neurotoxicity against Mus musculus MFI (mouse) assessed as tail erection at 135 mg/kg, ip; assay type: toxicity, organism-based; set-up: dose 135 mg/kg, route intraperitoneal; conditions: in vivo
Mus musculus [32] = assay: Neurotoxicity against Mus musculus MFI (mouse) assessed as effect on respiration at 135 mg/kg, ip; assay type: toxicity, organism-based; set-up: dose 135 mg/kg, route intraperitoneal; conditions: in vivo
Mus musculus [33] = assay: […] activity in Mus musculus MFI (mouse) assessed as inhibition of PBQ-induced writhing at 135 mg/kg, ip administered 1.5 hr prior to PBQ-challenge measured after 10 min relative to aspirin; assay type: functional; conditions: route intraperitoneal
Mus musculus [34] = assay: Neurotoxicity against Mus musculus MFI (mouse) assessed as irritability at 50 mg/kg, ip; assay type: toxicity, organism-based; set-up: dose 50 mg/kg, route intraperitoneal; conditions: in vivo
Mus musculus [35] = assay: Neurotoxicity against Mus musculus MFI (mouse) assessed as epilepsy at 135 mg/kg, ip; assay type: toxicity, organism-based; set-up: dose 135 mg/kg, route intraperitoneal; conditions: in vivo

CC(CN1CCN(C)CC1)Oc1cccc(Cl)c1Cl.O=C(O)C(=O)O (racemic)
Activity (Mus musculus [1]): Toxic
Activity (Mus musculus [2]): Toxic
Activity (Mus musculus [3]): Toxic
inhibition in vivo at 90 mg/kg (Mus musculus [4]): 85%
Activity (Mus musculus [5]): Toxic
Activity (Mus musculus [6]): Toxic
Activity (Mus musculus [7]): Toxic
Activity (Mus musculus [8]): Toxic
Activity (Mus musculus [9]): Toxic
Activity (Mus musculus [10]): Toxic
Activity (Mus musculus [11]): Toxic

CC(COc1cc(Cl)ccc1Cl)N1CCN(C)CC1.O=C(O)C(=O)O (racemic)
Activity (Mus musculus [12]): Toxic
Activity (Mus musculus [13]): Toxic
Activity (Mus musculus [1]): Toxic
Activity (Mus musculus [2]): Toxic
Activity (Mus musculus [14]): Toxic
Activity (Mus musculus [15]): Toxic
Activity (Mus musculus [16]): Toxic
Activity (Mus musculus [17]): Toxic
Activity (Mus musculus [18]): Toxic
Activity (Mus musculus [3]): Toxic
inhibition in vivo at 50 mg/kg (Mus musculus [19]): 50%
inhibition in vivo at 90 mg/kg (Mus musculus [4]): 62.5%
Activity (Mus musculus [20]): Toxic
Activity (Mus musculus [21]): Toxic
Activity (Mus musculus [22]): Toxic
Activity (Mus musculus [23]): Toxic
MTC (Mus musculus [24]): 90 mg/kg
Activity (Mus musculus [25]): Toxic
Activity (Mus musculus [5]): Toxic
Activity (Mus musculus [6]): Toxic
Activity (Mus musculus [26]): Toxic
Activity (Mus musculus [7]): Toxic
Activity (Mus musculus [27]): Toxic
Activity (Mus musculus [28]): Toxic
Activity (Mus musculus [29]): Toxic
Activity (Mus musculus [8]): Toxic
minimal effective dose (Mus musculus [30]): 60 mg/kg
Activity (Mus musculus [31]): Toxic
Activity (Mus musculus [32]): Toxic
Activity (Mus musculus [9]): Toxic
inhibition in vivo at 135 mg/kg (Mus musculus [33]): 100%
Activity (Mus musculus [10]): Toxic
Activity (Mus musculus [34]): Toxic
Activity (Mus musculus [11]): Toxic
Activity (Mus musculus [35]): Toxic
